Reference: PubChem BioAssay (NCI)
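Dose response: 5 concentrations. Exposure: 48 h. Format: 96-well plates. Endpoint: linear interpolation; highest concentration if not reached. GI50 = concentration required for 50% inhibition of growth. TGI is the concentration that stops growth completely.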

Tests used:
Assay in all cases: NCI anticancer screen, dose series, 48 h
RXF 393 renal = system: RXF 393 renal
SF-268 CNS = system: SF-268 CNS
HCT-116 colon = system: HCT-116 colon
NCI/ADR-RES ovarian = system: NCI/ADR-RES ovarian
NCI-H226 lung = system: NCI-H226 lung
HS 578T breast = system: HS 578T breast
BT-549 breast = system: BT-549 breast
SNB-75 CNS = system: SNB-75 CNS
EKVX NSCLC = system: EKVX NSCLC
M14 melanoma = system: M14 melanoma

COC(=O)c1c2c(c(C)[n+]([O-])c1C)C(=O)C=C(NCc1ccc(F)c(Cl)c1)C2=O
GI50 (RXF 393 renal): 1.13 µM | TGI (RXF 393 renal): 2.46 µM | GI50 (SF-268 CNS): 1.01 µM | TGI (SF-268 CNS): 2.81 µM | GI50 (HCT-116 colon): 0.13 µM | TGI (HCT-116 colon): 1.03 µM | GI50 (NCI/ADR-RES ovarian): 0.265 µM | TGI (NCI/ADR-RES ovarian): 1.63 µM | GI50 (NCI-H226 lung): 1.26 µM | TGI (NCI-H226 lung): 3.26 µM | GI50 (HS 578T breast): 1.62 µM | TGI (HS 578T breast): 6.48 µM | GI50 (BT-549 breast): 1.01 µM | TGI (BT-549 breast): 2.43 µM | GI50 (SNB-75 CNS): 1.69 µM | TGI (SNB-75 CNS): 3.09 µM | GI50 (EKVX NSCLC): 0.592 µM | TGI (EKVX NSCLC): 2.27 µM | GI50 (M14 melanoma): 0.117 µM | TGI (M14 melanoma): 1.45 µM

C#CCC(Cc1cnc2nc(N)nc(N)c2n1)c1ccc(C(=O)N[C@@H](CCC(=O)O)C(=O)O)cc1 (stereo partly specified)
GI50 (RXF 393 renal): < 0.01 µM | TGI (RXF 393 renal): > 100 µM | GI50 (SF-268 CNS): < 0.01 µM | TGI (SF-268 CNS): > 100 µM | GI50 (HCT-116 colon): < 0.01 µM | TGI (HCT-116 colon): > 100 µM | GI50 (NCI/ADR-RES ovarian): < 0.01 µM | TGI (NCI/ADR-RES ovarian): > 100 µM | GI50 (NCI-H226 lung): < 0.01 µM | TGI (NCI-H226 lung): > 100 µM | GI50 (HS 578T breast): > 100 µM | TGI (HS 578T breast): > 100 µM | GI50 (BT-549 breast): > 100 µM | TGI (BT-549 breast): > 100 µM | GI50 (SNB-75 CNS): < 0.0502 µM | TGI (SNB-75 CNS): > 100 µM | TGI (EKVX NSCLC): > 100 µM | GI50 (M14 melanoma): < 0.01 µM | TGI (M14 melanoma): > 100 µM

N#Cc1nc2c(S(=O)(=O)c3ccccc3)c(N)n(Cc3cccnc3)c2nc1C#N
GI50 (RXF 393 renal): 2.47 µM | TGI (RXF 393 renal): 9.1 µM | GI50 (SF-268 CNS): 4.26 µM | TGI (SF-268 CNS): 22.7 µM | GI50 (HCT-116 colon): 9.13 µM | TGI (HCT-116 colon): > 100 µM | GI50 (NCI/ADR-RES ovarian): 92.5 µM | TGI (NCI/ADR-RES ovarian): > 100 µM | GI50 (NCI-H226 lung): 28.9 µM | TGI (NCI-H226 lung): > 100 µM | GI50 (HS 578T breast): 1.81 µM | TGI (HS 578T breast): 5.52 µM | GI50 (BT-549 breast): 4.6 µM | TGI (BT-549 breast): 37.3 µM | GI50 (SNB-75 CNS): 3.35 µM | TGI (SNB-75 CNS): 20.2 µM | GI50 (EKVX NSCLC): 81.9 µM | TGI (EKVX NSCLC): > 100 µM

CC(C)(C)c1nn(-c2ccccc2)c2c1C(=O)CSC(c1ccccc1Cl)N2 (stereo unspecified)
GI50 (RXF 393 renal): 0.545 µM | TGI (RXF 393 renal): 3.11 µM | GI50 (SF-268 CNS): 2.76 µM | TGI (SF-268 CNS): 18.5 µM | GI50 (HCT-116 colon): 1.9 µM | TGI (HCT-116 colon): 12 µM | GI50 (NCI/ADR-RES ovarian): 0.632 µM | TGI (NCI/ADR-RES ovarian): 7.54 µM | GI50 (NCI-H226 lung): 1.61 µM | TGI (NCI-H226 lung): 5.97 µM | GI50 (HS 578T breast): 1.26 µM | TGI (HS 578T breast): 7.22 µM | GI50 (BT-549 breast): 2.91 µM | TGI (BT-549 breast): 12.9 µM | GI50 (SNB-75 CNS): 2.2 µM | TGI (SNB-75 CNS): 13.9 µM | GI50 (EKVX NSCLC): 3.71 µM | TGI (EKVX NSCLC): 26.1 µM | GI50 (M14 melanoma): 1.18 µM | TGI (M14 melanoma): 6.45 µM

O=NNc1ccc(S(=O)(=O)c2ccccc2)cn1
TGI (SF-268 CNS): > 100 µM | TGI (HCT-116 colon): > 100 µM | TGI (NCI/ADR-RES ovarian): > 100 µM | TGI (NCI-H226 lung): > 100 µM | TGI (HS 578T breast): > 100 µM | TGI (BT-549 breast): > 100 µM | TGI (SNB-75 CNS): > 100 µM | TGI (EKVX NSCLC): > 100 µM | TGI (M14 melanoma): > 100 µM
